# Like-named read-outs stand apart in the source and are kept apart here.
# What was measured:
# Format in all cases: biochemical
# Capnocytophaga sp. = details: strain JD3-5; β-naphthylamine liberated after 60 minutes, 37° C.
# Outline: (§1)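 Hydrolysis of N-CBz-glycyl-glycyl-L-arginine-β-naphthylamide over 1 h at 37 °C, then colour developed with Fast Garnet GBC (0.5 mg/ml) in 1M acetate pH 4.2 with 10% Tween 20 for 15 min at room temperature. Absorbance read at 525 nm against an enzyme-free control; activity given as nmol β-naphthylamine released in 60 min.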
# B. mel. ss. intermedius = details: β-naphthylamine liberated after 60 minutes, 37° C.
# Outline: as §1
# [1] = tested on: Capnocytophaga gingivalis; details: strain ATCC 33624; β-naphthylamine liberated after 60 minutes, 37° C.
# Outline: as §1
# B. levii = details: β-naphthylamine liberated after 60 minutes, 37° C.
# Outline: as §1
# Bacteroides gingivalis = details: β-naphthylamine liberated after 60 minutes, 37° C.
# Outline: as §1
# C. ochracea = details: strain ATCC 27872; β-naphthylamine liberated after 60 minutes, 37° C.
# Outline: as §1
# B. loescheii = details: β-naphthylamine liberated after 60 minutes, 37° C.
# Outline: as §1
# B. asaccharolyticus = details: β-naphthylamine liberated after 60 minutes, 37° C.
# Outline: as §1
# S. salivarius = assay: Aminopeptidase activity on β-naphthylamide substrates; details: β-naphthylamine liberated after 60 minutes, 37° C.
# Outline: (§2)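 Chromogenic assay using N-CBz-glycyl-glycyl-L-arginine-β-naphthylamide, incubated 1 hour at 37° C. Liberated β-naphthylamine is coupled with Fast Garnet GBC (0.5 mg/ml) in 1M acetic acid pH 4.2 with 10% Tween 20 for 15 min at room temperature, then read at 525 nm.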
# A. suis = assay: as above; details: strain ATCC 15557; β-naphthylamine liberated after 60 minutes, 37° C.
# Outline: as §2
# A. equuli = assay: as above; details: strain ATCC 19392; β-naphthylamine liberated after 60 minutes, 37° C.
# Outline: as §2
# Haemophilus aphrophilus = assay: as above; details: β-naphthylamine liberated after 60 minutes, 37° C.
# Outline: as §2
# L. fermentum = assay: as above; details: strain ATCC 11581; β-naphthylamine liberated after 60 minutes, 37° C.
# Outline: as §2
# F. periodonticum = assay: as above; details: strain EK1-15; β-naphthylamine liberated after 60 minutes, 37° C.
# Outline: as §2
# Lactobacillus casei = assay: as above; details: β-naphthylamine liberated after 60 minutes, 37° C.
# Outline: as §2
# S. mutans = details: strain ATCC 25175; β-naphthylamine liberated after 60 minutes, 37° C.
# Outline: as §2
# [2] = tested on: Actinobacillus actinomycetemcomitans; details: β-naphthylamine liberated after 60 minutes, 37° C.
# Outline: as §2
# A. viscosus = details: β-naphthylamine liberated after 60 minutes, 37° C.
# Outline: as §2
# S. sanguis = details: β-naphthylamine liberated after 60 minutes, 37° C.
# Outline: as §2
# "Anaerobic vibrio" = details: strain SN2T2; β-naphthylamine liberated after 60 minutes, 37° C.
# Outline: as §2
# Fusobacterium nucleatum = details: β-naphthylamine liberated after 60 minutes, 37° C.
# Outline: as §2
# Streptococcus mitis = details: β-naphthylamine liberated after 60 minutes, 37° C.
# Outline: as §2
# Veillonella sp. = details: strain SE1M2; β-naphthylamine liberated after 60 minutes, 37° C.
# Outline: as §2
# B. intermedius = assay: Aminopeptidase activity on β-naphthylamide substrates; details: strain ATCC 25611; β-naphthylamine liberated after 60 minutes, 37° C.
# Outline: as §1
# C. sputigena = assay: as above; details: strain ATCC 33123; β-naphthylamine liberated after 60 minutes, 37° C.
# Outline: as §1
# B. melaninogenicus = assay: as above; details: strain ATCC 25845; β-naphthylamine liberated after 60 minutes, 37° C.
# Outline: as §1
# B. corporis = assay: as above; details: strain ATCC 33547; β-naphthylamine liberated after 60 minutes, 37° C.
# Outline: as §1
# B. denticola = assay: as above; details: strain ATCC 33185; β-naphthylamine liberated after 60 minutes, 37° C.
# Outline: as §1
compound,measurement,setting,value
"Cl.N=C(N)NCCC[C@H](NC(=O)CNC(=O)CNC(=O)OCc1ccccc1)C(=O)Nc1ccc2ccccc2c1 [N-CBz-Gly-Gly-Arg, N-carbobenzoxy-glycyl-glycyl-L-arginine-β-naphthylamide hydrochloride]",Aminopeptidase activity,Capnocytophaga sp.,0 nmol
same,Aminopeptidase activity,B. mel. ss. intermedius; strain ATCC 25261,0 nmol
same,Aminopeptidase activity,B. mel. ss. intermedius; strain ATCC 33563,1 nmol
same,Aminopeptidase activity,B. mel. ss. intermedius; strain NCTC 9336,1 nmol
same,Aminopeptidase activity,[1],7 nmol
same,Aminopeptidase activity,B. levii; strain 18-1-5,0 nmol
same,Aminopeptidase activity,B. levii; strain 18-1-8,1 nmol
same,Aminopeptidase activity,Bacteroides gingivalis; strain 9-14K-1,61 nmol
same,Aminopeptidase activity,Bacteroides gingivalis; strain 11-1-2,92 nmol
same,Aminopeptidase activity,Bacteroides gingivalis; strain 381,91 nmol
same,Aminopeptidase activity,Bacteroides gingivalis; strain 1021,44 nmol
same,Aminopeptidase activity,Bacteroides gingivalis; strain ATCC 33277,84 nmol
same,Aminopeptidase activity,Bacteroides gingivalis; strain FAYE 19m-1,143 nmol
same,Aminopeptidase activity,C. ochracea,8 nmol
same,Aminopeptidase activity,B. loescheii; strain ATCC 15930,1 nmol
same,Aminopeptidase activity,B. loescheii; strain VPI4196,0 nmol
same,Aminopeptidase activity,B. asaccharolyticus; strain 536B,1 nmol
same,Aminopeptidase activity,B. asaccharolyticus; strain ATCC 18569,0 nmol
same,Aminopeptidase activity,B. asaccharolyticus; strain ATCC 25260,0 nmol
same,Aminopeptidase activity,B. asaccharolyticus; strain ATCC 27067,0 nmol
same,Aminopeptidase activity,B. asaccharolyticus; strain NY446,2 nmol
same,Aminopeptidase activity,S. salivarius; strain ATCC 9759,0 nmol
same,Aminopeptidase activity,S. salivarius; strain ATCC 25975,0 nmol
same,Aminopeptidase activity,A. suis,0 nmol
same,Aminopeptidase activity,A. equuli,0 nmol
same,Aminopeptidase activity,Haemophilus aphrophilus; strain ATCC 13252,1 nmol
same,Aminopeptidase activity,Haemophilus aphrophilus; strain ATCC 19415,1 nmol
same,Aminopeptidase activity,Haemophilus aphrophilus; strain NCTC 5908,0 nmol
same,Aminopeptidase activity,L. fermentum,0 nmol
same,Aminopeptidase activity,F. periodonticum,0 nmol
same,Aminopeptidase activity,Lactobacillus casei; strain ATCC 7469,0 nmol
same,Aminopeptidase activity,Lactobacillus casei; strain ATCC 11578,0 nmol
same,Aminopeptidase activity,Lactobacillus casei; strain ATCC 11582,0 nmol
same,Aminopeptidase activity,S. mutans,0 nmol
same,Aminopeptidase activity,[2]; strain 67,0 nmol
same,Aminopeptidase activity,[2]; strain 75,0 nmol
same,Aminopeptidase activity,[2]; strain ATCC 29523,0 nmol
same,Aminopeptidase activity,[2]; strain NCTC 9709,1 nmol
same,Aminopeptidase activity,[2]; strain Y4,0 nmol
same,Aminopeptidase activity,A. viscosus; strain ATCC 19246,0 nmol
same,Aminopeptidase activity,A. viscosus; strain T14V,0 nmol
same,Aminopeptidase activity,S. sanguis; strain ATCC 10556,0 nmol
same,Aminopeptidase activity,S. sanguis; strain ATCC 10557,0 nmol
same,Aminopeptidase activity,"""Anaerobic vibrio""",1 nmol
same,Aminopeptidase activity,Fusobacterium nucleatum; strain 2,3 nmol
same,Aminopeptidase activity,Fusobacterium nucleatum; strain ATCC 25586,0 nmol
same,Aminopeptidase activity,Fusobacterium nucleatum; strain D31A-24,2 nmol
same,Aminopeptidase activity,Streptococcus mitis; strain ATCC 9815,0 nmol
same,Aminopeptidase activity,Streptococcus mitis; strain ATCC 15909,0 nmol
same,Aminopeptidase activity,Streptococcus mitis; strain ATCC 15912,0 nmol
same,Aminopeptidase activity,Veillonella sp.,0 nmol
same,Aminopeptidase activity,B. intermedius,0 nmol
same,Aminopeptidase activity,C. sputigena,5 nmol
same,Aminopeptidase activity,B. melaninogenicus,0 nmol
same,Aminopeptidase activity,B. corporis,1 nmol
same,Aminopeptidase activity,B. denticola,0 nmol

# From patent US4994376A, “Detection of bacteroides gingivalis” (priority 1987, dated 1991)
